# According to the supplement of paper PMC10307832:
# What was measured:
# Assay in all cases: relative viability (nuclei count vs DMSO), 5 days (fraction); higher = more cells survive
# GW-2580 + Crizotinib = compound: COC1=CC=C(C=C1)COC2=C(C=C(C=C2)CC3=CN=C(N=C3N)N)OC [GW-2580] + C[C@@H](Oc1cc(-c2cnn(C3CCNCC3)c2)cnc1N)c1c(Cl)ccc(F)c1Cl [Crizotinib] (partner 1 µM)
# Procedure, shortened: (§1)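 Each reported value is a median over duplicate plates. It expresses relative viability: treated-well nuclei count divided by vehicle-well nuclei count. Lung cancer cell lines in 1536-well plates were dosed by pin tool a day after seeding, alone with one drug or with a fixed anchor-drug dose plus five library-drug doses (not always all listed) in √10 steps, and nuclei were counted after 5 days.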
# Fedratinib + Trametinib = compound: Cc1cnc(Nc2ccc(OCCN3CCCC3)cc2)nc1Nc1cccc(S(=O)(=O)NC(C)(C)C)c1 [Fedratinib] + CC(=O)Nc1cccc(-n2c(=O)n(C3CC3)c(=O)c3c(Nc4ccc(I)cc4F)n(C)c(=O)c(C)c32)c1 [Trametinib] (partner 0.02 µM)
# Procedure, shortened: as §1
# Fedratinib + Palbociclib = compound: Cc1cnc(Nc2ccc(OCCN3CCCC3)cc2)nc1Nc1cccc(S(=O)(=O)NC(C)(C)C)c1 [Fedratinib] + CC(=O)c1c(C)c2cnc(Nc3ccc(N4CCNCC4)cn3)nc2n(C2CCCC2)c1=O [Palbociclib] (partner 0.5 µM)
# Procedure, shortened: as §1
# Fedratinib + Vorinostat = compound: Cc1cnc(Nc2ccc(OCCN3CCCC3)cc2)nc1Nc1cccc(S(=O)(=O)NC(C)(C)C)c1 [Fedratinib] + O=C(CCCCCCC(=O)Nc1ccccc1)NO [Vorinostat] (partner 1 µM)
# Procedure, shortened: as §1
# Fedratinib + OSI-027 = compound: Cc1cnc(Nc2ccc(OCCN3CCCC3)cc2)nc1Nc1cccc(S(=O)(=O)NC(C)(C)C)c1 [Fedratinib] + COc1cccc2cc(-c3nc([C@H]4CC[C@H](C(=O)O)CC4)n4ncnc(N)c34)[nH]c12 [OSI-027] (partner 0.5 µM)
# Procedure, shortened: as §1
# Fedratinib + Pictilisib = compound: Cc1cnc(Nc2ccc(OCCN3CCCC3)cc2)nc1Nc1cccc(S(=O)(=O)NC(C)(C)C)c1 [Fedratinib] + CS(=O)(=O)N1CCN(Cc2cc3nc(-c4cccc5[nH]ncc45)nc(N4CCOCC4)c3s2)CC1 [Pictilisib] (partner 1 µM)
# Procedure, shortened: as §1
cell line,measurement,setting,value
UMC-11,relative viability,GW-2580 + Crizotinib; first compound 0.08 µM,0.599
same,relative viability,GW-2580 + Crizotinib; first compound 0.8 µM,0.614
same,relative viability,GW-2580 + Crizotinib; first compound 2.53 µM,0.585
same,relative viability,GW-2580 + Crizotinib; first compound 8 µM,0.601
same,relative viability,Fedratinib + Trametinib; first compound 0.1 µM,0.625
same,relative viability,Fedratinib + Trametinib; first compound 0.3162 µM,0.476
same,relative viability,Fedratinib + Trametinib; first compound 1 µM,0.52
same,relative viability,Fedratinib + Palbociclib; first compound 0.1 µM,0.345
same,relative viability,Fedratinib + Palbociclib; first compound 0.3162 µM,0.311
same,relative viability,Fedratinib + Palbociclib; first compound 1 µM,0.301
same,relative viability,Fedratinib + Vorinostat; first compound 0.1 µM,0.377
same,relative viability,Fedratinib + Vorinostat; first compound 0.3162 µM,0.357
same,relative viability,Fedratinib + Vorinostat; first compound 1 µM,0.241
same,relative viability,Fedratinib + OSI-027; first compound 0.1 µM,0.473
same,relative viability,Fedratinib + OSI-027; first compound 0.3162 µM,0.452
same,relative viability,Fedratinib + OSI-027; first compound 1 µM,0.373
same,relative viability,Fedratinib + Pictilisib; first compound 0.1 µM,0.672
same,relative viability,Fedratinib + Pictilisib; first compound 0.3162 µM,0.82
same,relative viability,Fedratinib + Pictilisib; first compound 1 µM,0.397
